Where two headings read alike, the source gives them in different places.
Test system: DLD-1 BRCA2−/− cells
Experiment: Homologous recombination synthetic lethal inhibition of proliferation, DLD-1 BRCA2-/- (Cell Titre Glo 3D)
Format: cell-based
Conditions: for IC50: Homo sapiens; for POLQ PD Prolif Lumin BRCA2 −/− mean pIC50: DLD-1 BRCA2 −/−
Method in brief: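 DLD-1 BRCA2−/− (3,000 cells/mL) and parental DLD-1 (1,500 cells/mL) cells in phenol red-free RPMI 1640 with 10% FBS were exposed to a 10-point, three-fold compound series from 10 μM to 0.51 nM at 37 °C, 5% CO2. Medium and compound were replenished on day 6. CellTiter-Glo 3D luminescence was read on day 7 (DLD-1) or day 12 (BRCA2−/−), and IC50 was taken as 50% reduction of maximum signal.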

[1] = DLD-1, first proliferation column, DLD-1 BRCA2-/-, read-out: POLQ PD Prolif Lumin (converted)
[2] = DLD-1, DLD-1 BRCA2 −/−, mean, read-out: POLQ PD Prolif Lumin BRCA2 −/− mean pIC50 (converted)

SMILES	IC50 [1] [µM]	also measured
Cc1ccnc(Cn2c(-c3ccc(OCC(=O)N4CCC[C@H]4CO)cc3Cl)nc3c(OC4(C)CC4)ncnc32)c1 [Example T576, (S)-2-(3-chloro-4-(6-(1-methylcyclopropoxy)-9-((4-methylpyridin-2-yl)methyl)-9H-purin-8-yl)phenoxy)-1-(2-(hydroxymethyl)pyrrolidin-1-yl)ethan-1-one]	0.501	
CO[C@H]1CCN(C(=O)COc2ccc(-c3nc4c(OC5(C)CC5)ncnc4n3Cc3cc(C)ccn3)c(Cl)c2)C1 [Example T577, (S)-2-(3-chloro-4-(6-(1-methylcyclopropoxy)-9-((4-methylpyridin-2-yl)methyl)-9H-purin-8-yl)phenoxy)-1-(3-methoxypyrrolidin-1-yl)ethan-1-one]	0.398	
Cc1ccnc(Cn2c(-c3ccc(OCC(=O)N4CC[C@@H](CO)C4)cc3Cl)nc3c(OC4(C)CC4)ncnc32)c1 [Example T578, (R)-2-(3-chloro-4-(6-(1-methylcyclopropoxy)-9-((4-methylpyridin-2-yl)methyl)-9H-purin-8-yl)phenoxy)-1-(3-(hydroxymethyl)pyrrolidin-1-yl)ethan-1-one]	0.631	
Cc1ccnc(Cn2c(-c3ccc(OCC(=O)N4CCC[C@@H]4CO)cc3Cl)nc3c(OC4(C)CC4)ncnc32)c1 [Example T579, (R)-2-(3-chloro-4-(6-(1-methylcyclopropoxy)-9-((4-methylpyridin-2-yl)methyl)-9H-purin-8-yl)phenoxy)-1-(2-(hydroxymethyl)pyrrolidin-1-yl)ethan-1-one]	0.501	
Cc1ccnc(Cn2c(-c3ccc(OCC(=O)N4CCC(O)CC4)cc3Cl)nc3c(OC4(C)CC4)ncnc32)c1 [Example T580, 2-(3-chloro-4-(6-(1-methylcyclopropoxy)-9-((4-methylpyridin-2-yl)methyl)-9H-purin-8-yl)phenoxy)-1-(4-hydroxypiperidin-1-yl)ethan-1-one]	0.501	
Cc1ccnc(Cn2c(-c3ccc(OCC(=O)N4CC[C@@](C)(O)C4)cc3Cl)nc3c(OC4(C)CC4)ncnc32)c1 [Example T581, (R)-2-(3-chloro-4-(6-(1-methylcyclopropoxy)-9-((4-methylpyridin-2-yl)methyl)-9H-purin-8-yl)phenoxy)-1-(3-hydroxy-3-methylpyrrolidin-1-yl)ethan-1-one]	0.501	
Cc1ccnc(Cn2c(-c3ccc(OCC(=O)N(C)[C@H]4C[C@@H](O)C4)cc3Cl)nc3c(OC4(C)CC4)ncnc32)c1 [Example T582, 2-(3-chloro-4-(6-(1-methylcyclopropoxy)-9-((4-methylpyridin-2-yl)methyl)-9H-purin-8-yl)phenoxy)-N-((1s,3s)-3-hydroxycyclobutyl)-N-methylacetamide]		POLQ PD Prolif Lumin (DLD-1 BRCA2-/-): 6.2
Cc1ccnc(Cn2c(-c3ccc(OCC(=O)N(C)CC4(O)CC4)cc3Cl)nc3c(OC4(C)CC4)ncnc32)c1 [Example T583, 2-(3-chloro-4-(6-(1-methylcyclopropoxy)-9-((4-methylpyridin-2-yl)methyl)-9H-purin-8-yl)phenoxy)-N-((1-hydroxycyclopropyl)methyl)-N-methylacetamide]	2	
Cc1ccnc(Cn2c(-c3ccc(O[C@H]4CCN(C(=O)[C@@H](C)O)C4)cc3Cl)nc3c(OC4(C)CC4)ncnc32)c1 [Example T584, (R)-1-((S)-3-(3-chloro-4-(6-(1-methylcyclopropoxy)-9-((4-methylpyridin-2-yl)methyl)-9H-purin-8-yl)phenoxy)pyrrolidin-1-yl)-2-hydroxypropan-1-one]	0.794	
Cc1ccnc(Cn2c(-c3ccc(N4CCN5CCC[C@H]5C4)cc3Cl)nc3c(OC4(C)CC4)ncnc32)c1 [Example T585, (S)-8-(2-chloro-4-(hexahydropyrrolo[1,2-a]pyrazin-2(1H)-yl)phenyl)-6-(1-methylcyclopropoxy)-9-((4-methylpyridin-2-yl)methyl)-9H-purine]	0.2	
Cc1ccnc(Cn2c(-c3ccc(N4CCC5(CCN5)CC4)cc3Cl)nc3c(OC4(C)CC4)ncnc32)c1 [Example T586, 8-(2-chloro-4-(1,7-diazaspiro[3.5]nonan-7-yl)phenyl)-6-(1-methylcyclopropoxy)-9-((4-methylpyridin-2-yl)methyl)-9H-purine]	1.58	
Cc1ccnc(Cn2c(-c3ccc(C(=O)N4CC(N5CCCC5)C4)cc3Cl)nc3c(OC4(C)CC4)ncnc32)c1 [Example T602, (3-chloro-4-(6-(1-methylcyclopropoxy)-9-((4-methylpyridin-2-yl)methyl)-9H-purin-8-yl)phenyl)(3-(pyrrolidin-1-yl)azetidin-1-yl)methanone]	1.26	
Cc1ccnc(Cn2c(-c3ccc(CC(=O)N4CC(N5CCC5)C4)cc3Cl)nc3c(OC4(C)CC4)ncnc32)c1 [Example T603, 1-([1,3′-biazetidin]-1′-yl)-2-(3-chloro-4-(6-(1-methylcyclopropoxy)-9-((4-methylpyridin-2-yl)methyl)-9H-purin-8-yl)phenyl)ethan-1-one]	0.794	
CC1(Oc2ncnc3c2nc(-c2ccc(OCCN4C5CCC4CNC5)cc2Cl)n3Cc2ccccc2)CC1 [Example T605, 8-(4-(2-(3,8-diazabicyclo[3.2.1]octan-8-yl)ethoxy)-2-chlorophenyl)-9-benzyl-6-(1-methylcyclopropoxy)-9H-purine]	0.158	
CC(=O)N1CCN(CCOc2ccc(-c3nc4c(OC5(C)CC5)ncnc4n3Cc3cc(C)ccn3)c(Cl)c2)CC1 [Example T607, 1-(4-(2-(3-chloro-4-(6-(1-methylcyclopropoxy)-9-((4-methylpyridin-2-yl)methyl)-9H-purin-8-yl)phenoxy)ethyl)piperazin-1-yl)ethan-1-one]	0.126	
CC(C)(C)Oc1cccc2c1nc(-c1ccc(OCCN3CCNCC3)cc1Cl)n2Cc1cccc(Cl)c1 [Example T608, 4-(tert-butoxy)-2-(2-chloro-4-(2-(piperazin-1-yl)ethoxy)phenyl)-1-(3-chlorobenzyl)-1H-benzo[d]imidazole]	0.501	
Cc1ccnc(Cn2c(-c3ccc(OCCN4CCN(C)CC4)cc3Cl)nc3c(OC(C)(C)C)nccc32)c1 [Example T610, 4-(tert-butoxy)-2-(2-chloro-4-(2-(4-methylpiperazin-1-yl)ethoxy)phenyl)-1-((4-methylpyridin-2-yl)methyl)-1H-imidazo[4,5-c]pyridine]	> 7.94	
CC1(Oc2cccc3c2nc(-c2ccc(OCCN4CCNCC4)cc2Cl)n3Cc2cccc(Cl)c2)CCC1 [Example T611, 2-(2-chloro-4-(2-(piperazin-1-yl)ethoxy)phenyl)-1-(3-chlorobenzyl)-4-(1-methylcyclobutoxy)-1H-benzo[d]imidazole]	0.316	
CC1(Oc2ncnc3c2nc(-c2ccc(OCC4(CC(=O)O)CC4)cc2Cl)n3Cc2ccccc2C#N)CC1 [Example U15, 2-(1-((3-chloro-4-(9-(2-cyanobenzyl)-6-(1-methylcyclopropoxy)-9H-purin-8-yl)phenoxy)methyl)cyclopropyl)acetic acid]		IC50 [2]: 0.794 µM
CC1(Oc2ncnc3c2nc(-c2ccc(O[C@H]4CC[C@@H](C(=O)O)CC4)cc2Cl)n3Cc2ccccc2C#N)CC1 [Example U16, (1s,4s)-4-(3-chloro-4-(9-(2-cyanobenzyl)-6-(1-methylcyclopropoxy)-9H-purin-8-yl)phenoxy)cyclohexane-1-carboxylic acid]		POLQ PD Prolif Lumin BRCA2 −/− mean pIC50 (mean): 6.4
CC1(Oc2ncnc3c2nc(-c2ccc(OCCC(C)(C)C(=O)O)cc2Cl)n3Cc2ccccc2C#N)CC1 [Example U17, 4-(3-chloro-4-(9-(2-cyanobenzyl)-6-(1-methylcyclopropoxy)-9H-purin-8-yl)phenoxy)-2,2-dimethylbutanoic acid]		IC50 [2]: 0.251 µM
CC1(Oc2ncnc3c2nc(-c2ccc(O[C@H]4CC[C@H](C(=O)O)CC4)cc2Cl)n3Cc2ccccc2C#N)CC1 [Example U19, (1r,4r)-4-(3-chloro-4-(9-(2-cyanobenzyl)-6-(1-methylcyclopropoxy)-9H-purin-8-yl)phenoxy)cyclohexane-1-carboxylic acid]		POLQ PD Prolif Lumin BRCA2 −/− mean pIC50 (mean): 6.6
CC1(Oc2ncnc3c2nc(-c2ccc(CCCCC(=O)O)cc2Cl)n3Cc2ccccc2C#N)CC1 [Example U20, 5-(3-chloro-4-(9-(2-cyanobenzyl)-6-(1-methylcyclopropoxy)-9H-purin-8-yl)phenyl)pentanoic acid]		IC50 [2]: 0.251 µM
CC1(Oc2ncnc3c2nc(-c2ccc(OCCCC(C)(C)C(=O)O)cc2Cl)n3Cc2ccccc2C#N)CC1 [Example U21, 5-(3-chloro-4-(9-(2-cyanobenzyl)-6-(1-methylcyclopropoxy)-9H-purin-8-yl)phenoxy)-2,2-dimethylpentanoic acid]		IC50 [2]: 0.158 µM
CC1(Oc2ncnc3c2nc(-c2ccc(OC[C@H]4C[C@H](C(=O)O)C4)cc2Cl)n3Cc2ccccc2C#N)CC1 [Example U27, (1r,3r)-3-((3-chloro-4-(9-(2-cyanobenzyl)-6-(1-methylcyclopropoxy)-9H-purin-8-yl)phenoxy)methyl)cyclobutane-1-carboxylic acid]		POLQ PD Prolif Lumin BRCA2 −/− mean pIC50 (mean): 6.7
CC1(Oc2ncnc3c2nc(-c2cccc(OCCC(=O)O)c2Cl)n3Cc2cc(Cl)ccc2F)CC1 [Example U32, 3-(2-chloro-3-(9-(5-chloro-2-fluorobenzyl)-6-(1-methylcyclopropoxy)-9H-purin-8-yl)phenoxy)propanoic acid]		IC50 [2]: 0.0398 µM
CC1(Oc2ncnc3c2nc(-c2ccc(O[C@H]4CC[C@@H](C(=O)O)CC4)cc2Cl)n3Cc2cc(Cl)ccc2F)CC1 [Example U44, (1s,4s)-4-(3-chloro-4-(9-(5-chloro-2-fluorobenzyl)-6-(1-methylcyclopropoxy)-9H-purin-8-yl)phenoxy)cyclohexane-1-carboxylic acid]		POLQ PD Prolif Lumin BRCA2 −/− mean pIC50 (mean): 7.2
CC1(Oc2ncnc3c2nc(-c2ccc(OCCC(C)(C)C(=O)O)cc2Cl)n3Cc2cc(Cl)ccc2F)CC1 [Example U46, 4-(3-chloro-4-(9-(5-chloro-2-fluorobenzyl)-6-(1-methylcyclopropoxy)-9H-purin-8-yl)phenoxy)-2,2-dimethylbutanoic acid]		IC50 [2]: 0.0316 µM
